Literature values, collected in patent US20210186960A1, “MODULATORS OF INDOLEAMINE 2,3-DIOXYGENASE” (GLAXOSMITHKLINE INTELLECTUAL PROPERTY DEVELOPMENT LIMITED, priority 2017, published 2021).

Columns and labels:
[1] = system: conversion of T cells into CD4+FoxP3+ Tregs; details: co-culture of DCs and naive CD4+CD25- T cells; cited from earlier work
[2] = system: PANO2 pancreatic cells; details: orally dosed, cited from earlier work

NS(=O)(=O)NCCNc1nonc1C(=NO)Nc1ccc(F)c(Br)c1 [INCB204360]
conversion of T cells into CD4+FoxP3+ Tregs [1]: blocked the conversion | inhibition of tumor growth ([2]; PANO2 syngeneic model, immunocompetent mice): significant dose-dependent inhibition of tumor growth | effect on tumor growth ([2]; same tumor implanted in immune-deficient mice): without effect
